Source: ChEMBL document CHEMBL4706588, “Rational design and biological evaluation of a new class of thiazolopyridyl tetrahydroacridines as cholinesterase and GSK-3 dual inhibitors for Alzheimer's disease” (Eur J Med Chem, 2020)
Active and inactive are the calls of the source. The rule behind the calls is not given here.

Key:
[1] = target: Cholinesterase (Homo sapiens, UniProt P06276); assay: Inhibition of human BuChE using butyrylthiocholine iodide as substrate preincubated with enzyme for 1 min followed by substrate addition and measured after 10 mins by Ellman's method
[2] = target: Acetylcholinesterase (Homo sapiens, UniProt P22303); assay: Inhibition of human AChE using acetylthiocholine iodide as substrate preincubated with enzyme for 1 min followed by substrate addition and measured after 10 mins by Ellman's method
[3] = in vitro; conditions: PAMPA
Description: Effective permeability of compound at 100 ug/ml incubated for 20 hrs by PAMPA-BBB assay

[4] = target: T1, Glycogen synthase kinase-3 beta (Homo sapiens, UniProt P49841); assay: biochemical
Target sequence in this assay (P49841 whole entry): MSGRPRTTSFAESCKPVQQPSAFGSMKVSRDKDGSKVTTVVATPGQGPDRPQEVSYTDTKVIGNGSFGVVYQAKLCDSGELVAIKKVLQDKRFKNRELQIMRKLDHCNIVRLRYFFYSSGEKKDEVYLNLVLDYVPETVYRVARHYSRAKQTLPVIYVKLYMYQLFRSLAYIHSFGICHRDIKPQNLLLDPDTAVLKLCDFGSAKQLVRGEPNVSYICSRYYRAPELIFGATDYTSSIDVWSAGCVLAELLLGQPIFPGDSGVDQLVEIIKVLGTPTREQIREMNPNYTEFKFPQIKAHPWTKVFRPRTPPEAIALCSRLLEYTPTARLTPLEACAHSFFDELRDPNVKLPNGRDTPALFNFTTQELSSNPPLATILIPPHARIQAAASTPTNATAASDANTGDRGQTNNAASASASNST
Description: Inhibition of recombinant human N-terminal His6-tagged GSK-3beta H350L mutant expressed in baculovirus infected Sf21 cells using GSM as substrate incubated for 30 mins in presence of ATP by kinase-glo luminescence assay

[5] = Effect on swimming speed in ICR mouse model of scopolamine-induced memory impairment at 15 mg/kg, po administered 30 mins prior to scopolamine injection by Morris water maze test; type: ADME, organism-based; conditions: in vivo, 0.5 h
[6] = system: BV-2; assay: Inhibition of LPS-induced ROS production in mouse BV-2 cells at 5 uM incubated for 1 hr followed by LPS stimulation and measured after 24 hrs by DCFH-DA staining based inverted fluorescence microscopic analysis; type: functional, cell-based; conditions: time 25.0 hrs
[7] = target: Glycogen synthase kinase-3 beta (Mus musculus) (UniProt Q9WV60); assay: Inhibition of GSK3beta in mouse N2a cells overexpressing human tau protein assessed as phosphorylated tau Ser396 residue level at 15 uM incubated for 1 hr followed by okadaid-acid addition and measured after 5 hrs by Western blot analysis relative to control; type: cell-based; set-up: scale not given: the % may be the effect or the level left; conditions: time 6.0 hrs
[8] = target: Glycogen synthase kinase-3 beta (Mus musculus) (UniProt Q9WV60); assay: Inhibition of GSK3beta in mouse N2a cells overexpressing human tau protein assessed as reduction in tau Ser396 residue phosphorylation at 5 uM incubated for 1 hr followed by okadaid-acid addition and measured after 5 hrs by Western blot analysis relative to control; type: cell-based; conditions: time 6.0 hrs
[9] = target: T2, Dual specificity tyrosine-phosphorylation-regulated kinase 1A (Homo sapiens, UniProt Q13627); assay: Inhibition of DYRK1alpha (unknown origin)
[10] = target: T3, Dual specificity tyrosine-phosphorylation-regulated kinase 1B (Homo sapiens, UniProt Q9Y463); assay: Inhibition of DYRK1beta (unknown origin)
Target sequence in this assay (Q9Y463 whole entry): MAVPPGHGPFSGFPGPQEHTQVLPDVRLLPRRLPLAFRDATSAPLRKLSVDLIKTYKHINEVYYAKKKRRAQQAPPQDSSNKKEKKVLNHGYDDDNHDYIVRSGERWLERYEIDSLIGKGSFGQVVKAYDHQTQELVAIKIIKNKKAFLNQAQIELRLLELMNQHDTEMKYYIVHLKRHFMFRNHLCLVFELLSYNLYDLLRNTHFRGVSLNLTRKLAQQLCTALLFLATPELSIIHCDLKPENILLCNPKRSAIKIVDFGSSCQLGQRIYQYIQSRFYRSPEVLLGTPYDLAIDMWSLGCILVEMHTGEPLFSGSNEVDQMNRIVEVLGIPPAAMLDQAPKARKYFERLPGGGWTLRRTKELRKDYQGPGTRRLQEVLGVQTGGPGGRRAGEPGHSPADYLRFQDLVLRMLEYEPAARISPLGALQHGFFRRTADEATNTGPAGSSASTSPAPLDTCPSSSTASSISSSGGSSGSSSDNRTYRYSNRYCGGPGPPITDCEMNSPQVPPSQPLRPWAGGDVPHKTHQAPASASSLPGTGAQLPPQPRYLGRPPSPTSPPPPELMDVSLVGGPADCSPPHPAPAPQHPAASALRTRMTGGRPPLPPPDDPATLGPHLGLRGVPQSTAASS

[11] = target: Mitogen-activated protein kinase 3 (Homo sapiens) (UniProt P27361); assay: Inhibition of ERK1 (unknown origin) at 300 nM relative to control
[12] = target: Mitogen-activated protein kinase 1 (Homo sapiens) (UniProt P28482); assay: Inhibition of ERK2 (unknown origin) at 300 nM relative to control
[13] = target: Mitogen-activated protein kinase 14 (Homo sapiens) (UniProt Q16539); assay: Inhibition of P38alpha (unknown origin) at 300 nM relative to control
[14] = target: Glycogen synthase kinase-3 alpha (Homo sapiens) (UniProt P49840); assay: Inhibition of GSK-3alpha (unknown origin) at 300 nM relative to control
[15] = target: T1, Glycogen synthase kinase-3 beta; assay: Inhibition of GSK-3beta (unknown origin) at 300 nM relative to control
Target sequence in this assay (P49841 whole entry, looked up): as the sequence (P49841 whole entry) above

[16] = target: Mitogen-activated protein kinase 13 (Homo sapiens) (UniProt O15264); assay: Inhibition of P38delta (unknown origin) at 300 nM relative to control
[17] = target: Mitogen-activated protein kinase 12 (Homo sapiens) (UniProt P53778); assay: Inhibition of P38gamma (unknown origin) at 300 nM relative to control
[18] = target: T3, Dual specificity tyrosine-phosphorylation-regulated kinase 1B; assay: Inhibition of DYRK1beta (unknown origin) at 300 nM relative to control
Target sequence in this assay (Q9Y463 whole entry, looked up): as the sequence (Q9Y463 whole entry) above

[19] = target: T2, Dual specificity tyrosine-phosphorylation-regulated kinase 1A; assay: Inhibition of DYRK1alpha (unknown origin) at 300 nM relative to control
[20] = target: Mitogen-activated protein kinase 10 (Homo sapiens) (UniProt P53779); assay: Inhibition of JNK3 (unknown origin) at 300 nM relative to control
[21] = target: Mitogen-activated protein kinase 9 (Homo sapiens) (UniProt P45984); assay: Inhibition of JNK2 (unknown origin) at 300 nM relative to control
[22] = target: Cyclin-dependent kinase 2 (Homo sapiens) (UniProt P24941); assay: Inhibition of CDK2 (unknown origin) at 300 nM relative to control
[23] = target: Cyclin-dependent kinase 4 (Homo sapiens) (UniProt P11802); assay: Inhibition of CDK4 (unknown origin) at 300 nM relative to control
[24] = system: Mus musculus; assay: Cognitive enhancing effect in ICR mouse model of scopolamine-induced memory impairment assessed as improvement in trajectories to platform at 15 mg/kg, po administered 30 mins prior to scopolamine injection by Morris water maze test; type: functional, organism-based
[25] = species on record: Homo sapiens; assay: Selectivity for GSK3 (unknown origin) over CDK9 (unknown origin)
[26] = species on record: Homo sapiens; assay: Selectivity for GSK3 (unknown origin) over CDK7 (unknown origin)
[27] = species on record: Homo sapiens; assay: Selectivity for GSK3 (unknown origin) over CDK6 (unknown origin)
[28] = species on record: Homo sapiens; assay: Selectivity for GSK3 (unknown origin) over CDK4 (unknown origin)
[29] = species on record: Homo sapiens; assay: Selectivity for GSK3 (unknown origin) over CDK2 (unknown origin)
[30] = species on record: Homo sapiens; assay: Selectivity for GSK3 (unknown origin) over CDK1 (unknown origin)
[31] = species on record: Homo sapiens; assay: Selectivity for GSK3 (unknown origin) over JNK3 (unknown origin)
[32] = species on record: Homo sapiens; assay: Selectivity for GSK3 (unknown origin) over JNK2 (unknown origin)
[33] = species on record: Homo sapiens; assay: Selectivity for GSK3 (unknown origin) over MAPK p38 delta (unknown origin)
[34] = species on record: Homo sapiens; assay: Selectivity for GSK3 (unknown origin) over MAPK p38 gamma (unknown origin)
[35] = species on record: Homo sapiens; assay: Selectivity for GSK3 (unknown origin) over MAPK p38 beta (unknown origin)
[36] = species on record: Homo sapiens; assay: Selectivity for GSK3 (unknown origin) over MAPK p38 alpha (unknown origin)
[37] = species on record: Homo sapiens; assay: Selectivity for GSK3 (unknown origin) over ERK2 (unknown origin)
[38] = species on record: Homo sapiens; assay: Selectivity for GSK3 (unknown origin) over ERK1 (unknown origin)
[39] = target: Glycogen synthase kinase-3 beta (Mus musculus) (UniProt Q9WV60); assay: Inhibition of GSK3beta in mouse N2a cells overexpressing human tau protein assessed as phosphorylated tau Ser396 residue level at 10 uM incubated for 1 hr followed by okadaid-acid addition and measured after 5 hrs by Western blot analysis relative to control; type: cell-based; set-up: scale not given: the % may be the effect or the level left; conditions: time 6.0 hrs
[40] = system: N2a; assay: Effect on tau protein expression in mouse N2a cells transfected with human tau protein at 5 to 15 uM incubated for 1 hr followed by okadaid-acid addition and measured after 5 hrs by Western blot analysis; type: functional, cell-based; conditions: dose 5-15 µM, time 6.0 hrs
[41] = Effect on cell morphology in LPS-treated mouse BV-2 cells at 5 uM pretreated for 1 hr followed by incubation with LPS for 24 hrs by fluorescence microscopic analysis; type: ADME; conditions: bv-2, 25 h

Cholinesterase, sequence (P06276 whole entry): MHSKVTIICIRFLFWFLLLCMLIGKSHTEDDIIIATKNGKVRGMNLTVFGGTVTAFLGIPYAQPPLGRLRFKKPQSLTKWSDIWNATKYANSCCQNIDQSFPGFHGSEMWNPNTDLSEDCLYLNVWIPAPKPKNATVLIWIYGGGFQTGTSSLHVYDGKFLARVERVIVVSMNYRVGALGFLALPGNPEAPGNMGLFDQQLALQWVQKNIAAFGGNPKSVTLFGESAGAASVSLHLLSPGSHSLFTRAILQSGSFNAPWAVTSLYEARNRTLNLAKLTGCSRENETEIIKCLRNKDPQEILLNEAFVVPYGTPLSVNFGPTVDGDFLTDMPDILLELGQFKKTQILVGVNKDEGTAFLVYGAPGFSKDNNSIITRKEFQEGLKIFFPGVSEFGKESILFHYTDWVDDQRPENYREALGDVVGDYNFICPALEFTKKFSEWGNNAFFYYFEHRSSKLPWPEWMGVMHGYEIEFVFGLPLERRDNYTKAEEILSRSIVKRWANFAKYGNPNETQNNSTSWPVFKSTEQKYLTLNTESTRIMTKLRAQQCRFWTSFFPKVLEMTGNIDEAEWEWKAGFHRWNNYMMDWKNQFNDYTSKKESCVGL
Acetylcholinesterase, sequence (P22303 whole entry): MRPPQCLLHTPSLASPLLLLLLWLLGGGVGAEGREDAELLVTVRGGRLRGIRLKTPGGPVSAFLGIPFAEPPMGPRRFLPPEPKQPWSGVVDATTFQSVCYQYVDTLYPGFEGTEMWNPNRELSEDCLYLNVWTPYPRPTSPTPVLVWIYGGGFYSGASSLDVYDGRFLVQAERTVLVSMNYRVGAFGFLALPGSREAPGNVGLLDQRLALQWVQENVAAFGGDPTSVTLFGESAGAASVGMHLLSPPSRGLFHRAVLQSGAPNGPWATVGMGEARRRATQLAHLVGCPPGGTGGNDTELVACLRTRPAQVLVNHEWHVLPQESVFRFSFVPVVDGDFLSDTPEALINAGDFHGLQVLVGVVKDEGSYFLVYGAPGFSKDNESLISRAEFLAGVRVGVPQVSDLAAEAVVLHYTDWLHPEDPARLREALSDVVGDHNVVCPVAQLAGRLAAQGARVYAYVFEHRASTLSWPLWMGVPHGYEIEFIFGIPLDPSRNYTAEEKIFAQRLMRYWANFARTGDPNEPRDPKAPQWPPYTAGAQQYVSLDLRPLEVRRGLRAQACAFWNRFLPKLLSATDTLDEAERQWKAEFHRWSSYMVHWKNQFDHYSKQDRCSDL
Glycogen synthase kinase-3 beta (Mus musculus), sequence (Q9WV60 whole entry, looked up): as the sequence (P49841 whole entry) above, with T390P, T392A, A400T, T402A counted along it
Mitogen-activated protein kinase 12 (Homo sapiens), sequence (P53778 whole entry): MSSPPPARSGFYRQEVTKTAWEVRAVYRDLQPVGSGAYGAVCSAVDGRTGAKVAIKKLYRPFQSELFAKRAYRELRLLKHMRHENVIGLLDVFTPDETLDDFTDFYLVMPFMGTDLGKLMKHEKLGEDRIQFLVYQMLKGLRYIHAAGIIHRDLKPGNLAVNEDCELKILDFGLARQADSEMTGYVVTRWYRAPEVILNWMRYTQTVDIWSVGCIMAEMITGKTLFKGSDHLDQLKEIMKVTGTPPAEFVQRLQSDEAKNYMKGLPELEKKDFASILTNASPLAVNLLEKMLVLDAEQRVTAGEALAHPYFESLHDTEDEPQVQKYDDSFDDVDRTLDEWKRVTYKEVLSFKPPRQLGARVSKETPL
Mitogen-activated protein kinase 14 (Homo sapiens), sequence (Q16539 whole entry): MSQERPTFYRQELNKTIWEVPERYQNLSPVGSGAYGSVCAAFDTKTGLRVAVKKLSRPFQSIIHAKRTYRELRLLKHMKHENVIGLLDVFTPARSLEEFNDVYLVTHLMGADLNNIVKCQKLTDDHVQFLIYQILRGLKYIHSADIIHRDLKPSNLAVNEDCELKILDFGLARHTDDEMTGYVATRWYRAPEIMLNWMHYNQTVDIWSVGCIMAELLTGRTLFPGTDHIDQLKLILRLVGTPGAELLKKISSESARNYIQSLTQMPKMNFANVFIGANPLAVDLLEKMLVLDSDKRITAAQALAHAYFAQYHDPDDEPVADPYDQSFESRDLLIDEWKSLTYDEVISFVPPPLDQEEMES
Mitogen-activated protein kinase 9 (Homo sapiens), sequence (P45984 whole entry, looked up): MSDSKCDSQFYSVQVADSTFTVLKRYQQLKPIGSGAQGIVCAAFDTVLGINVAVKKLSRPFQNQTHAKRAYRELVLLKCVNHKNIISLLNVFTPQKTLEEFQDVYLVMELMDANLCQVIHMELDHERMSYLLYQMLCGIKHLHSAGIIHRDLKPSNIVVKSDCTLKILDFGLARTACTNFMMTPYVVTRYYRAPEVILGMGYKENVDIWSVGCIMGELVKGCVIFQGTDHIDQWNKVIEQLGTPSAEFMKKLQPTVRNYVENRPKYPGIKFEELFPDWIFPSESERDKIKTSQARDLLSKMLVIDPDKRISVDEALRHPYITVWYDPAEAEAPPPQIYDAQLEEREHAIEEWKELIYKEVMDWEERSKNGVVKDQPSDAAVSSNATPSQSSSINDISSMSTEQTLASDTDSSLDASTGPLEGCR
Mitogen-activated protein kinase 1 (Homo sapiens), sequence (P28482 whole entry): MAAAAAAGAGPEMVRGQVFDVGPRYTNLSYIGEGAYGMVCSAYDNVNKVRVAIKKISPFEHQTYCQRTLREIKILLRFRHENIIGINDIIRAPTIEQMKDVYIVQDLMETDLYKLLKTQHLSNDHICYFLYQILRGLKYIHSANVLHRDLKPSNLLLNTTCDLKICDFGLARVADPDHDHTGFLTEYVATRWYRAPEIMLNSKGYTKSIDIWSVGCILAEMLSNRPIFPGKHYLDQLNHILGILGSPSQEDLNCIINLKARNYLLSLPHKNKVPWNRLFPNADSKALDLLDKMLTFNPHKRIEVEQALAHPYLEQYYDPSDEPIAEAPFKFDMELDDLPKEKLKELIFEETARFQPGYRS
Mitogen-activated protein kinase 10 (Homo sapiens), sequence (P53779 whole entry): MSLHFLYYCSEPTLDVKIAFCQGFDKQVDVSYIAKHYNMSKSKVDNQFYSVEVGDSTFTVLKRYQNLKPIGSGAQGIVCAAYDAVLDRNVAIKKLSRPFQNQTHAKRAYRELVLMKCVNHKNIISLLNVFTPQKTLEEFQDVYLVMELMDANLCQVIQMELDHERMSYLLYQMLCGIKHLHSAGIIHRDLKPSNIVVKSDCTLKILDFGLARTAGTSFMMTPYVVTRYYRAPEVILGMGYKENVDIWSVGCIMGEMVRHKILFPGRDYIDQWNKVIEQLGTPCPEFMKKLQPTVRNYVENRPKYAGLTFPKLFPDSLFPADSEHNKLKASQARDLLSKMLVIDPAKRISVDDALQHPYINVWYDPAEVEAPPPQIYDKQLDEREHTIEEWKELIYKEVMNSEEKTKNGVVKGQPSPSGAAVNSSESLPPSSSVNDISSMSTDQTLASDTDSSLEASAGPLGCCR

Structure (SMILES): CNC(=O)c1sc(-c2ccnc(NC(=O)CNCCCCNc3c4c(nc5ccccc35)CCCC4)c2)nc1OCC1CC1
- IC50 [1]: 48.3 nM
- IC50 [2]: 23.1 nM
- Papp at 20 h, 100 ug/ml [3]: 7.1 ×10⁻⁶ cm/s
- IC50 [4]: 41.6 nM

Structure (SMILES): CNC(=O)c1sc(-c2ccnc(NC(=O)CNCCNc3c4c(nc5ccccc35)CCCC4)c2)nc1OCC1CC1
- Activity [5]: Non-Toxic
- inhibition [6]: Active
- Activity [7]: 17%
- inhibition [8]: 49%
- IC50 [9]: 28.3 nM
- IC50 [10]: 120 nM
- inhibition [11]: 13.1%
- inhibition [12]: 9.78%
- inhibition [13]: 5.21%
- inhibition [14]: 91.1%
- inhibition [15]: 86.3%
- inhibition [16]: 20.6%
- inhibition [17]: 7.64%
- inhibition [18]: 67.9%
- inhibition [19]: 83.7%
- inhibition [20]: 16.7%
- inhibition [21]: 29.8%
- inhibition [22]: 3.8%
- inhibition [23]: 3.07%
- IC50 [1]: 150 nM
- IC50 [2]: 1.2 nM
- Activity [24]: Active
- Selectivity ratio [25]: 100
- Selectivity ratio [26]: 100
- Selectivity ratio [27]: 100
- Selectivity ratio [28]: 100
- Selectivity ratio [29]: 100
- Selectivity ratio [30]: 100
- Selectivity ratio [31]: 100
- Selectivity ratio [32]: 100
- Selectivity ratio [33]: 100
- Selectivity ratio [34]: 100
- Selectivity ratio [35]: 100
- Selectivity ratio [36]: 100
- Selectivity ratio [37]: 100
- Selectivity ratio [38]: 100
- Activity [39]: 25.8%
- Activity [40]: inactive
- Activity [41]: Non-Toxic
- Papp at 20 h, 100 ug/ml [3]: 6.9 ×10⁻⁶ cm/s
- IC50 [4]: 22 nM

Structure (SMILES): CNC(=O)c1sc(-c2ccnc(NC(=O)CNCCNc3c4c(nc5ccc(OC)cc35)CCCC4)c2)nc1OCC1CC1
- IC50 [1]: > 1000 nM
- IC50 [2]: 30.7 nM
- Papp at 20 h, 100 ug/ml [3]: 5.7 ×10⁻⁶ cm/s
- IC50 [4]: 39.3 nM

Structure (SMILES): NC(=O)c1sc(-c2ccnc(NC(=O)CNCCNc3c4c(nc5ccccc35)CCCC4)c2)nc1OCC1CC1
- IC50 [1]: 190 nM
- IC50 [2]: 0.8 nM
- Papp at 20 h, 100 ug/ml [3]: 4.9 ×10⁻⁶ cm/s
- IC50 [4]: 42.6 nM

Structure (SMILES): CNC(=O)c1sc(-c2ccnc(NC(=O)C3CC3)c2)nc1OCCc1cn(CCNc2c3c(nc4cc(Cl)ccc24)CCCC3)nn1
- IC50 [1]: > 1000 nM
- IC50 [2]: 38.7 nM
- Papp at 20 h, 100 ug/ml [3]: 4.7 ×10⁻⁶ cm/s
- IC50 [4]: 46.7 nM

Structure (SMILES): CNC(=O)c1sc(-c2ccnc(NC(=O)C3CC3)c2)nc1OCCOCc1cn(CCNc2c3c(nc4ccccc24)CCCC3)nn1
- Activity [5]: Non-Toxic
- inhibition [6]: Active
- IC50 [1]: 360 nM
- IC50 [2]: 44.7 nM
- Activity [24]: Active
- Activity [41]: Non-Toxic
- Papp at 20 h, 100 ug/ml [3]: 4.6 ×10⁻⁶ cm/s
- IC50 [4]: 20.8 nM

Structure (SMILES): CCn1cc(C(=O)O)c(=O)c2cc(F)c(N3CCNC(C)C3)c(F)c21 (stereo not given) [LOMEFLOXACIN]
- Papp at 20 h, 100 ug/ml [3]: 0.9 ×10⁻⁶ cm/s

Structure (SMILES): CNC(=O)c1sc(-c2ccnc(NC(=O)C3CC3)c2)nc1OCCOCc1cn(CCNc2c3c(nc4cc(Cl)ccc24)CCCC3)nn1
- IC50 [1]: > 1000 nM
- IC50 [2]: 12.1 nM
- Papp at 20 h, 100 ug/ml [3]: 4.2 ×10⁻⁶ cm/s
- IC50 [4]: 26.3 nM
